Experimental data: PMC6110851, “An Optimized MicroPET Imaging Method for the Distribution and Synergies of Natural Products” (Frontiers in Pharmacology, 2018)
Where two headings read alike, the source gives them in different places.

Experiment: MicroPET distribution of [^18F]-GA after PG polysaccharides intervention
Type: in vivo, mice
Conditions: for tissue uptake at 1 h / tissue uptake at 168 h: po; for tissue uptake at 1 h: read-out: %ID/g of [^18F]-GA in the lungs, OA; for tissue uptake at 168 h: PG polysaccharides orally for 7 days, read-out: %ID/g of [^18F]-GA in the lungs, LA
Experimental: The mice were grouped by weight and housed in cages of the climate control room (25°C), with a photoperiod 12:12-h. During feeding, mice were free to access food and water. Mice were fasted for 24 h before the experiment. The mice were anesthetized with 4% isoflurane while preparing for scanning ([Constantinescu et al., 2013b]; [Cui et al., 2017]). Eighteen healthy male Kunming mice, weighing 20 ± 2 g, were divided into three groups, which were control group, once-administered (OA) group and long-term administration (LA) group. In the OA group, 1 h before the administration of [^18F]-GA, the mice were orally treated with PG polysaccharides. In the LA group, the mice were orally given the PG polysaccharides for 7 days, but not before the administration of [^18F]-GA.
Rice received a tail vein injection (8.67 ± 2.14 MBq/μg) of [^18F]-GA and placed in the scanner bed and mouse-imaging room immediately ([Constantinescu et al., 2013b]; [O’Doherty et al., 2017]). Firstly, 2 h PET scanning was performed using an Inveon-dedicated PET scanner. The average delay between injection and starting of PET scanning was 3.5 min. Rice were maintained stable under 4% isoflurane anesthesia throughout scanning. The PET list-mode data were dynamically classified into 23 3D sinograms of span and three ring difference. After Fourier recombination, the data were reconstructed using a 2D ordered-subset expectation maximization algorithm. Random events were excluded before reconstruction. The response of detector is normalized using a component-based approach. All dynamic images were corrected for radioactive decay automatically. The PET images were reconstructed by a cone beam algorithm into 480 × 480 × 632 image arrays. After the reconstruction, images were spatially transformed to match the PET images ([Constantinescu et al., 2013a],[b]).
The reconstruction of the image was performed using the PMOD software (PMOD Technologies). The 3D volumes of interest (VOIs) were drawn manually of the following organs: brain, heart, liver, lungs, kidneys, cortical bone, and gallbladder. The organs were carefully identified and VOIs were drawn as irregular contours on high-resolution PET images obtained from each mouse ([Constantinescu et al., 2013b]; [Garg et al., 2017]). The size of each VOI was less than the actual size of each organ to minimize the effects of PET on adjacent organ spills. The VOIs drawing was verified by a second operator. The VOIs of cortical bone were generated by first using PET image to depict the entire femur bone ([Constantinescu et al., 2013b]). The VOI was transferred to a dynamic PET image and the mean time-activity curve (TAC) of the decay correction was extracted for each target organ ([Constantinescu et al., 2013b]).

time from which lung %ID/g of OA group differs significantly (OA vs. Con, Table 2): 7 min
[^18F]-GA concentration of lung, OA group relative to LA group (area under the curve, OA: PG polysaccharides 1 h before, LA: for 7 days): 2 times
[^18F]-GA concentration of lung, OA group relative to control mice (area under the curve, PG polysaccharides orally 1 h before [^18F]-GA): 2.7 times
tissue uptake at 60 s (male, Kunming, mouse, lungs, intravenous, mice, control group, Time(s) 60, read-out: %ID/g of [^18F]-GA in the lungs, Con): 8.86 %ID/g
tissue uptake at 180 s (male, Kunming, mouse, lungs, intravenous, mice, control group, Time(s) 180, read-out: %ID/g of [^18F]-GA in the lungs, Con): 4.36 %ID/g
tissue uptake at 300 s (male, Kunming, mouse, lungs, intravenous, mice, control group, Time(s) 300, read-out: %ID/g of [^18F]-GA in the lungs, Con): 3.29 %ID/g
tissue uptake at 420 s (male, Kunming, mouse, lungs, intravenous, mice, control group, Time(s) 420, read-out: %ID/g of [^18F]-GA in the lungs, Con): 2.78 %ID/g
tissue uptake at 540 s (male, Kunming, mouse, lungs, intravenous, mice, control group, Time(s) 540, read-out: %ID/g of [^18F]-GA in the lungs, Con): 2.42 %ID/g
tissue uptake at 780 s (male, Kunming, mouse, lungs, intravenous, mice, control group, Time(s) 780, read-out: %ID/g of [^18F]-GA in the lungs, Con): 2.1 %ID/g
tissue uptake at 900 s (male, Kunming, mouse, lungs, intravenous, mice, control group, Time(s) 900, read-out: %ID/g of [^18F]-GA in the lungs, Con): 2.15 %ID/g
tissue uptake at 1020 s (male, Kunming, mouse, lungs, intravenous, mice, control group, Time(s) 1020, read-out: %ID/g of [^18F]-GA in the lungs, Con): 2.09 %ID/g
tissue uptake at 1140 s (male, Kunming, mouse, lungs, intravenous, mice, control group, Time(s) 1140, read-out: %ID/g of [^18F]-GA in the lungs, Con): 1.9 %ID/g
tissue uptake at 1350 s (male, Kunming, mouse, lungs, intravenous, mice, control group, Time(s) 1350, read-out: %ID/g of [^18F]-GA in the lungs, Con): 1.75 %ID/g
tissue uptake at 1650 s (male, Kunming, mouse, lungs, intravenous, mice, control group, Time(s) 1650, read-out: %ID/g of [^18F]-GA in the lungs, Con): 1.66 %ID/g
tissue uptake at 1950 s (male, Kunming, mouse, lungs, intravenous, mice, control group, Time(s) 1950, read-out: %ID/g of [^18F]-GA in the lungs, Con): 1.55 %ID/g
tissue uptake at 2250 s (male, Kunming, mouse, lungs, intravenous, mice, control group, Time(s) 2250, read-out: %ID/g of [^18F]-GA in the lungs, Con): 1.51 %ID/g
tissue uptake at 2700 s (male, Kunming, mouse, lungs, intravenous, mice, control group, Time(s) 2700, read-out: %ID/g of [^18F]-GA in the lungs, Con): 1.34 %ID/g
tissue uptake at 3300 s (male, Kunming, mouse, lungs, intravenous, mice, control group, Time(s) 3300, read-out: %ID/g of [^18F]-GA in the lungs, Con): 1.26 %ID/g
tissue uptake at 3900 s (male, Kunming, mouse, lungs, intravenous, mice, control group, Time(s) 3900, read-out: %ID/g of [^18F]-GA in the lungs, Con): 1.23 %ID/g
tissue uptake at 4500 s (male, Kunming, mouse, lungs, intravenous, mice, control group, Time(s) 4500, read-out: %ID/g of [^18F]-GA in the lungs, Con): 1.05 %ID/g
tissue uptake at 5100 s (male, Kunming, mouse, lungs, intravenous, mice, control group, Time(s) 5100, read-out: %ID/g of [^18F]-GA in the lungs, Con): 1.04 %ID/g
tissue uptake at 5700 s (male, Kunming, mouse, lungs, intravenous, mice, control group, Time(s) 5700, read-out: %ID/g of [^18F]-GA in the lungs, Con): 1.02 %ID/g
tissue uptake at 6300 s (male, Kunming, mouse, lungs, intravenous, mice, control group, Time(s) 6300, read-out: %ID/g of [^18F]-GA in the lungs, Con): 0.97 %ID/g
tissue uptake at 6900 s (male, Kunming, mouse, lungs, intravenous, mice, control group, Time(s) 6900, read-out: %ID/g of [^18F]-GA in the lungs, Con): 0.94 %ID/g
tissue uptake at 1 h (male, Kunming, mouse, lungs, mice, PG polysaccharides orally 1 h before [^18F]-GA, Time(s) 60): 8.21 %ID/g
tissue uptake at 1 h (male, Kunming, mouse, lungs, mice, PG polysaccharides orally 1 h before [^18F]-GA, Time(s) 180): 5.95 %ID/g
tissue uptake at 1 h (male, Kunming, mouse, lungs, mice, PG polysaccharides orally 1 h before [^18F]-GA, Time(s) 300): 5.53 %ID/g
tissue uptake at 1 h (male, Kunming, mouse, lungs, mice, PG polysaccharides orally 1 h before [^18F]-GA, Time(s) 420): 5.2 %ID/g
tissue uptake at 1 h (male, Kunming, mouse, lungs, mice, PG polysaccharides orally 1 h before [^18F]-GA, Time(s) 540): 4.85 %ID/g
tissue uptake at 1 h (male, Kunming, mouse, lungs, mice, PG polysaccharides orally 1 h before [^18F]-GA, Time(s) 660): 4.63 %ID/g
tissue uptake at 1 h (male, Kunming, mouse, lungs, mice, PG polysaccharides orally 1 h before [^18F]-GA, Time(s) 780): 4.54 %ID/g
tissue uptake at 1 h (male, Kunming, mouse, lungs, mice, PG polysaccharides orally 1 h before [^18F]-GA, Time(s) 900): 4.53 %ID/g
tissue uptake at 1 h (male, Kunming, mouse, lungs, mice, PG polysaccharides orally 1 h before [^18F]-GA, Time(s) 1020): 4.35 %ID/g
tissue uptake at 1 h (male, Kunming, mouse, lungs, mice, PG polysaccharides orally 1 h before [^18F]-GA, Time(s) 1140): 4.25 %ID/g
tissue uptake at 1 h (male, Kunming, mouse, lungs, mice, PG polysaccharides orally 1 h before [^18F]-GA, Time(s) 1350): 4.17 %ID/g
tissue uptake at 1 h (male, Kunming, mouse, lungs, mice, PG polysaccharides orally 1 h before [^18F]-GA, Time(s) 1650): 4.06 %ID/g
tissue uptake at 1 h (male, Kunming, mouse, lungs, mice, PG polysaccharides orally 1 h before [^18F]-GA, Time(s) 1950): 3.95 %ID/g
tissue uptake at 1 h (male, Kunming, mouse, lungs, mice, PG polysaccharides orally 1 h before [^18F]-GA, Time(s) 2250): 3.79 %ID/g
tissue uptake at 1 h (male, Kunming, mouse, lungs, mice, PG polysaccharides orally 1 h before [^18F]-GA, Time(s) 2700): 3.54 %ID/g
tissue uptake at 1 h (male, Kunming, mouse, lungs, mice, PG polysaccharides orally 1 h before [^18F]-GA, Time(s) 3300): 3.17 %ID/g
tissue uptake at 1 h (male, Kunming, mouse, lungs, mice, PG polysaccharides orally 1 h before [^18F]-GA, Time(s) 3900): 3.06 %ID/g
tissue uptake at 1 h (male, Kunming, mouse, lungs, mice, PG polysaccharides orally 1 h before [^18F]-GA, Time(s) 4500): 3.07 %ID/g
tissue uptake at 1 h (male, Kunming, mouse, lungs, mice, PG polysaccharides orally 1 h before [^18F]-GA, Time(s) 5100): 2.96 %ID/g
tissue uptake at 1 h (male, Kunming, mouse, lungs, mice, PG polysaccharides orally 1 h before [^18F]-GA, Time(s) 5700): 2.88 %ID/g
tissue uptake at 1 h (male, Kunming, mouse, lungs, mice, PG polysaccharides orally 1 h before [^18F]-GA, Time(s) 6300): 2.95 %ID/g
tissue uptake at 1 h (male, Kunming, mouse, lungs, mice, PG polysaccharides orally 1 h before [^18F]-GA, Time(s) 6900): 2.85 %ID/g
tissue uptake at 168 h (male, Kunming, mouse, lungs, mice, Time(s) 60): 8.74 %ID/g
tissue uptake at 168 h (male, Kunming, mouse, lungs, mice, Time(s) 180): 4.38 %ID/g
tissue uptake at 168 h (male, Kunming, mouse, lungs, mice, Time(s) 300): 3.63 %ID/g
tissue uptake at 168 h (male, Kunming, mouse, lungs, mice, Time(s) 420): 3.15 %ID/g
tissue uptake at 168 h (male, Kunming, mouse, lungs, mice, Time(s) 540): 2.85 %ID/g
tissue uptake at 168 h (male, Kunming, mouse, lungs, mice, Time(s) 660): 2.9 %ID/g
tissue uptake at 168 h (male, Kunming, mouse, lungs, mice, Time(s) 780): 2.51 %ID/g
tissue uptake at 168 h (male, Kunming, mouse, lungs, mice, Time(s) 900): 2.49 %ID/g
tissue uptake at 168 h (male, Kunming, mouse, lungs, mice, Time(s) 1020): 2.35 %ID/g
tissue uptake at 168 h (male, Kunming, mouse, lungs, mice, Time(s) 1140): 2.19 %ID/g
tissue uptake at 168 h (male, Kunming, mouse, lungs, mice, Time(s) 1350): 2.16 %ID/g
tissue uptake at 168 h (male, Kunming, mouse, lungs, mice, Time(s) 1650): 2.06 %ID/g
tissue uptake at 168 h (male, Kunming, mouse, lungs, mice, Time(s) 1950): 1.89 %ID/g
tissue uptake at 168 h (male, Kunming, mouse, lungs, mice, Time(s) 2250): 1.78 %ID/g
tissue uptake at 168 h (male, Kunming, mouse, lungs, mice, Time(s) 2700): 1.7 %ID/g
tissue uptake at 168 h (male, Kunming, mouse, lungs, mice, Time(s) 3300): 1.48 %ID/g
tissue uptake at 168 h (male, Kunming, mouse, lungs, mice, Time(s) 3900): 1.33 %ID/g
tissue uptake at 168 h (male, Kunming, mouse, lungs, mice, Time(s) 4500): 1.24 %ID/g
tissue uptake at 168 h (male, Kunming, mouse, lungs, mice, Time(s) 5100): 1.18 %ID/g
tissue uptake at 168 h (male, Kunming, mouse, lungs, mice, Time(s) 5700): 1.06 %ID/g
tissue uptake at 168 h (male, Kunming, mouse, lungs, mice, Time(s) 6300): 1.11 %ID/g
tissue uptake at 168 h (male, Kunming, mouse, lungs, mice, Time(s) 6900): 1.05 %ID/g
%ID/g of [^18F]-GA in the lungs, Con (mice, control group, Time(s) 660): 2.45 %ID/g
change of [^18F]-GA concentration in other organs after PG polysaccharides intervention (organs other than lung): no significant change in other organs
Compound: CC1(C)[C@@H](O)CC[C@]2(C)[C@H]3C(=O)C=C4[C@@H]5C[C@@](C)(C(=O)NCCCC[18F])CC[C@]5(C)CC[C@@]4(C)[C@]3(C)CC[C@@H]12 [[^18F]-GA, [^18F]-Glycyrrhetinic acid]
ranking of organ concentration (area under the curve) (control group, mice): concentration of liver was highest, and the lung was lowest
